Assay results published in PubChem BioAssay AID212 (DTP/NCI, 2004).
Where “and” joins values, the source holds several entries; their conditions need not be identical. Identical values can stand only once. Inconclusive results are not listed.

Test system: BDF1 mice, colon carcinoma 38 sc, T/C %
Experiment: NCI In Vivo Anticancer Drug Screen. Data for tumor model Colon Carcinoma 38 (subcutaneous) in B6D2F1 (BDF1) mice
In short: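 Mice with transplanted tumors are treated with compound or vehicle. Survival or tumor size is then measured in both groups. The ratio of treated to control gives the reported figure.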

[1] = endpoint: median tumor weight (est.), dose: 50.0 mg/kg/injection, schedule: Q07DX002 (ip), vehicle: saline with Tween-80, higher = larger tumour
[2] = endpoint: median tumor weight (est.), dose: 100.0 mg/kg/injection, schedule: Q07DX002 (ip), vehicle: saline with Tween-80, higher = larger tumour
[3] = endpoint: median tumor weight (est.), dose: 200.0 mg/kg/injection, schedule: Q07DX002 (ip), vehicle: saline with Tween-80, higher = larger tumour
[4] = endpoint: median tumor weight (est.), dose: 12.5 mg/kg/injection, schedule: Q07DX002 (ip), vehicle: saline, higher = larger tumour
[5] = endpoint: median tumor weight (est.), dose: 25.0 mg/kg/injection, schedule: Q07DX002 (ip), vehicle: saline, higher = larger tumour
[6] = endpoint: median tumor weight (est.), dose: 100.0 mg/kg/injection, schedule: Q07DX002 (ip), vehicle: saline, higher = larger tumour
[7] = endpoint: median tumor weight (est.), dose: 50.0 mg/kg/injection, schedule: Q07DX002 (ip), vehicle: Klucel (hydroxypropylcellulose) (HPC), higher = larger tumour

## CN(N=O)C(=O)N[C@@H](C=O)[C@@H](O)[C@H](O)[C@H](O)CO
endpoint: median survival time, dose: 23.0 mg/kg/injection, schedule: Q01DX010 (sc), vehicle: other, higher = longer survival
  T/C: 110 % of control
endpoint: median survival time, dose: 37.0 mg/kg/injection, schedule: Q01DX010 (sc), vehicle: other, higher = longer survival
  T/C: 100 % of control
endpoint: median survival time, dose: 60.0 mg/kg/injection, schedule: Q01DX010 (sc), vehicle: other, higher = longer survival
  T/C: 115 % of control
endpoint: median tumor weight (est.), dose: 12.5 mg/kg/injection, schedule: Q07DX003 (ip), vehicle: other, higher = larger tumour
  T/C: 78 % of control
endpoint: median tumor weight (est.), dose: 25.0 mg/kg/injection, schedule: Q07DX003 (ip), vehicle: other, higher = larger tumour
  T/C: 54 % of control
endpoint: median tumor weight (est.), dose: 50.0 mg/kg/injection, schedule: Q07DX003 (ip), vehicle: other, higher = larger tumour
  T/C: 66 % of control
endpoint: median tumor weight (est.), dose: 100.0 mg/kg/injection, schedule: Q07DX003 (ip), vehicle: other, higher = larger tumour
  T/C: 56 % of control
endpoint: median tumor weight (est.), dose: 200.0 mg/kg/injection, schedule: Q07DX003 (ip), vehicle: other, higher = larger tumour
  T/C: 34 % of control

## CCN1/C(=C/C=C/C=C\C=C\c2sc3ccc4ccccc4c3[n+]2CC)Sc2ccc3ccccc3c21
endpoint: median tumor weight (est.), dose: 2.5 mg/kg/injection, schedule: Q07DX002 (ip), vehicle: saline with Tween-80, higher = larger tumour
  T/C: 105 % of control
endpoint: median tumor weight (est.), dose: 5.0 mg/kg/injection, schedule: Q07DX002 (ip), vehicle: saline with Tween-80, higher = larger tumour
  T/C: 89 % of control
endpoint: median tumor weight (est.), dose: 10.0 mg/kg/injection, schedule: Q07DX002 (ip), vehicle: saline with Tween-80, higher = larger tumour
  T/C: 69 % of control
endpoint: median tumor weight (est.), dose: 20.0 mg/kg/injection, schedule: Q07DX002 (ip), vehicle: saline with Tween-80, higher = larger tumour
  T/C: 76 % of control

## C1OCN2CSCC12 (stereo not given)
endpoint: median tumor weight (est.), dose: 25.0 mg/kg/injection, schedule: Q07DX002 (ip), vehicle: saline with Tween-80, higher = larger tumour
  T/C: 97 % of control
[1]
  T/C: 67 % of control
[2]
  T/C: 85 % of control
[3]
  T/C: 79 % of control
endpoint: median tumor weight (est.), dose: 400.0 mg/kg/injection, schedule: Q07DX002 (ip), vehicle: saline with Tween-80, higher = larger tumour
  T/C: 80 % of control

## O=C(O)[C@H](Cc1ccccc1)N1C(=O)c2ccccc2C1=O
endpoint: median tumor weight (est.), dose: 50.0 mg/kg/injection, schedule: Q07DX002 (ip), vehicle: DMSO, higher = larger tumour
  T/C: 98 % of control
endpoint: median tumor weight (est.), dose: 100.0 mg/kg/injection, schedule: Q07DX002 (ip), vehicle: DMSO, higher = larger tumour
  T/C: 108 % of control

## N=C(N)c1ccc(/C=C/c2ccc(C(=N)N)cc2O)cc1
endpoint: median tumor weight (est.), dose: 6.25 mg/kg/injection, schedule: Q07DX002 (ip), vehicle: water, higher = larger tumour
  T/C: 86 % of control
endpoint: median tumor weight (est.), dose: 12.5 mg/kg/injection, schedule: Q07DX002 (ip), vehicle: water, higher = larger tumour
  T/C: 95 % of control
endpoint: median tumor weight (est.), dose: 25.0 mg/kg/injection, schedule: Q07DX002 (ip), vehicle: water, higher = larger tumour
  T/C: 112 % of control
endpoint: median tumor weight (est.), dose: 100.0 mg/kg/injection, schedule: Q07DX002 (ip), vehicle: water, higher = larger tumour
  T/C: 108 % of control

## Clc1ccc(C(c2ccc(Cl)cc2)C(Cl)(Cl)Cl)cc1
endpoint: median tumor weight (est.), dose: 4.0 mg/kg/injection, schedule: Q07DX002 (ip), vehicle: Klucel (hydroxypropylcellulose) (HPC), higher = larger tumour
  T/C: 123 % of control
endpoint: median tumor weight (est.), dose: 8.0 mg/kg/injection, schedule: Q07DX002 (ip), vehicle: Klucel (hydroxypropylcellulose) (HPC), higher = larger tumour
  T/C: 94 % of control
endpoint: median tumor weight (est.), dose: 16.0 mg/kg/injection, schedule: Q07DX002 (ip), vehicle: Klucel (hydroxypropylcellulose) (HPC), higher = larger tumour
  T/C: 112 % of control
endpoint: median tumor weight (est.), dose: 32.0 mg/kg/injection, schedule: Q07DX002 (ip), vehicle: Klucel (hydroxypropylcellulose) (HPC), higher = larger tumour
  T/C: 122 % of control

## CC[As](=O)(O)CC
[4]
  T/C: 101 % of control
[5]
  T/C: 110 % of control
[6]
  T/C: 81 % of control
endpoint: median tumor weight (est.), dose: 200.0 mg/kg/injection, schedule: Q07DX002 (ip), vehicle: saline, higher = larger tumour
  T/C: 97 % of control
endpoint: median tumor weight (est.), dose: 400.0 mg/kg/injection, schedule: Q07DX002 (ip), vehicle: saline, higher = larger tumour
  T/C: 110 % of control

## CC1=C[S+](c2ccccc2)c2cccc3cc4ccccc4c1c23 (stereo not given)
endpoint: median tumor weight (est.), dose: 0.5 mg/kg/injection, schedule: Q07DX002 (ip), vehicle: saline with Tween-80, higher = larger tumour
  T/C: 109 % of control
endpoint: median tumor weight (est.), dose: 1.0 mg/kg/injection, schedule: Q07DX002 (ip), vehicle: saline with Tween-80, higher = larger tumour
  T/C: 162 % of control
endpoint: median tumor weight (est.), dose: 2.0 mg/kg/injection, schedule: Q07DX002 (ip), vehicle: saline with Tween-80, higher = larger tumour
  T/C: 151 % of control
endpoint: median tumor weight (est.), dose: 4.0 mg/kg/injection, schedule: Q07DX002 (ip), vehicle: saline with Tween-80, higher = larger tumour
  T/C: 114 % of control

## O=C(O)CC(=O)O.[NH-]CC[NH-].[Pt+2]
endpoint: median tumor weight (est.), dose: 14.1 mg/kg/injection, schedule: Q07DX002 (ip), vehicle: dextrose, higher = larger tumour
  T/C: 71 % of control and 85 % of control
endpoint: median tumor weight (est.), dose: 28.1 mg/kg/injection, schedule: Q07DX002 (ip), vehicle: dextrose, higher = larger tumour
  T/C: 69 % of control
endpoint: median tumor weight (est.), dose: 28.2 mg/kg/injection, schedule: Q07DX002 (ip), vehicle: dextrose, higher = larger tumour
  T/C: 71 % of control and 75 % of control
endpoint: median tumor weight (est.), dose: 56.2 mg/kg/injection, schedule: Q07DX002 (ip), vehicle: dextrose, higher = larger tumour
  T/C: 42 % of control

## CCCCN(CCCC)C(Cl)=Nc1ccccc1
endpoint: median tumor weight (est.), dose: 12.5 mg/kg/injection, schedule: Q07DX002 (ip), vehicle: Klucel (hydroxypropylcellulose) (HPC), higher = larger tumour
  T/C: 111 % of control and 118 % of control
endpoint: median tumor weight (est.), dose: 25.0 mg/kg/injection, schedule: Q07DX002 (ip), vehicle: Klucel (hydroxypropylcellulose) (HPC), higher = larger tumour
  T/C: 93 % of control and 94 % of control
[7]
  T/C: 68 % of control and 89 % of control

## COc1cc(C)c(C2NC(=O)c3ccccc3N2)cc1C (stereo not given)
[7]
  T/C: 121 % of control
endpoint: median tumor weight (est.), dose: 100.0 mg/kg/injection, schedule: Q07DX002 (ip), vehicle: Klucel (hydroxypropylcellulose) (HPC), higher = larger tumour
  T/C: 78 % of control
endpoint: median tumor weight (est.), dose: 400.0 mg/kg/injection, schedule: Q07DX002 (ip), vehicle: Klucel (hydroxypropylcellulose) (HPC), higher = larger tumour
  T/C: 117 % of control
endpoint: median tumor weight (est.), dose: 800.0 mg/kg/injection, schedule: Q07DX002 (ip), vehicle: Klucel (hydroxypropylcellulose) (HPC), higher = larger tumour
  T/C: 108 % of control

## O=C(/C=C(\Cl)C(=O)NO)NO
[4]
  T/C: 154 % of control
endpoint: median tumor weight (est.), dose: 12.5 mg/kg/injection, schedule: Q07DX002 (ip), vehicle: suspension in saline, higher = larger tumour
  T/C: 82 % of control
[5]
  T/C: 159 % of control
endpoint: median tumor weight (est.), dose: 25.0 mg/kg/injection, schedule: Q07DX002 (ip), vehicle: suspension in saline, higher = larger tumour
  T/C: 101 % of control
endpoint: median tumor weight (est.), dose: 50.0 mg/kg/injection, schedule: Q07DX002 (ip), vehicle: saline, higher = larger tumour
  T/C: 175 % of control
[6]
  T/C: 119 % of control
endpoint: median tumor weight (est.), dose: 100.0 mg/kg/injection, schedule: Q07DX002 (ip), vehicle: suspension in saline, higher = larger tumour
  T/C: 94 % of control

## NC(CSC(c1ccccc1)(c1ccccc1)c1ccccc1)C(=O)O (stereo not given)
endpoint: median tumor weight (est.), dose: 8.0 mg/kg/injection, schedule: Q07DX003 (ip), vehicle: Klucel (hydroxypropylcellulose) (HPC), higher = larger tumour
  T/C: 83 % of control
endpoint: median tumor weight (est.), dose: 8.0 mg/kg/injection, schedule: Q07DX003 (ip), vehicle: saline with Tween-80, higher = larger tumour
  T/C: 78 % of control
endpoint: median tumor weight (est.), dose: 16.0 mg/kg/injection, schedule: Q07DX003 (ip), vehicle: Klucel (hydroxypropylcellulose) (HPC), higher = larger tumour
  T/C: 53 % of control
endpoint: median tumor weight (est.), dose: 16.0 mg/kg/injection, schedule: Q07DX003 (ip), vehicle: saline with Tween-80, higher = larger tumour
  T/C: 61 % of control
endpoint: median tumor weight (est.), dose: 32.0 mg/kg/injection, schedule: Q07DX003 (ip), vehicle: Klucel (hydroxypropylcellulose) (HPC), higher = larger tumour
  T/C: 64 % of control
endpoint: median tumor weight (est.), dose: 32.0 mg/kg/injection, schedule: Q07DX003 (ip), vehicle: saline with Tween-80, higher = larger tumour
  T/C: 57 % of control
endpoint: median tumor weight (est.), dose: 64.0 mg/kg/injection, schedule: Q07DX003 (ip), vehicle: Klucel (hydroxypropylcellulose) (HPC), higher = larger tumour
  T/C: 46 % of control
endpoint: median tumor weight (est.), dose: 64.0 mg/kg/injection, schedule: Q07DX003 (ip), vehicle: saline with Tween-80, higher = larger tumour
  T/C: 75 % of control
endpoint: median tumor weight (est.), dose: 128.0 mg/kg/injection, schedule: Q07DX003 (ip), vehicle: Klucel (hydroxypropylcellulose) (HPC), higher = larger tumour
  T/C: 34 % of control
endpoint: median tumor weight (est.), dose: 128.0 mg/kg/injection, schedule: Q07DX003 (ip), vehicle: saline with Tween-80, higher = larger tumour
  T/C: 9 % of control
endpoint: median tumor weight (est.), dose: 256.0 mg/kg/injection, schedule: Q07DX003 (ip), vehicle: Klucel (hydroxypropylcellulose) (HPC), higher = larger tumour
  T/C: 17 % of control

## CS(=O)(=O)Nc1ccc(C(=O)CCN2CCCCCC2)cc1
[1]
  T/C: 96 % of control
[2]
  T/C: 86 % of control
[3]
  T/C: 95 % of control

## COc1cc2c[n+](C)c3c4cc5c(cc4ccc3c2cc1OC)OCO5
endpoint: median tumor weight (est.), dose: 20.0 mg/kg/injection, schedule: Q07DX003 (ip), vehicle: saline with Tween-80, higher = larger tumour
  T/C: 110 % of control
endpoint: median tumor weight (est.), dose: 40.0 mg/kg/injection, schedule: Q07DX003 (ip), vehicle: saline with Tween-80, higher = larger tumour
  T/C: 97 % of control

## C(CC1CO1)C1CO1 (stereo not given)
endpoint: median tumor weight (est.), dose: 5.0 mg/kg/injection, schedule: Q07DX002 (ip), vehicle: Klucel (hydroxypropylcellulose) (HPC), higher = larger tumour
  T/C: 172 % of control and 185 % of control
endpoint: median tumor weight (est.), dose: 10.0 mg/kg/injection, schedule: Q07DX002 (ip), vehicle: Klucel (hydroxypropylcellulose) (HPC), higher = larger tumour
  T/C: 106 % of control
endpoint: median tumor weight (est.), dose: 40.0 mg/kg/injection, schedule: Q07DX002 (ip), vehicle: Klucel (hydroxypropylcellulose) (HPC), higher = larger tumour
  T/C: 245 % of control
endpoint: median tumor weight (est.), dose: 80.0 mg/kg/injection, schedule: Q07DX002 (ip), vehicle: Klucel (hydroxypropylcellulose) (HPC), higher = larger tumour
  T/C: 115 % of control
endpoint: median tumor weight (est.), dose: 160.0 mg/kg/injection, schedule: Q07DX002 (ip), vehicle: Klucel (hydroxypropylcellulose) (HPC), higher = larger tumour
  T/C: 81 % of control
